# Measurements taken from paper PMC12362587, “Untargeted Diversity-Oriented Synthesis for the Discovery of New Antitumor Agents: An Integrated Approach of Inverse Virtual Screening, Bioinformatics, and Omics for Target Deconvolution” (Journal of Medicinal Chemistry, 2025).
# Key:
# [1] = biological target: T1, serine/threonine-protein kinase B-raf (V600E) (Homo sapiens, UniProt P15056, V600E); experiment: B-Raf kinase assay (V600E; BPS Bioscience); assay type: biochemical; conditions: top concentration 30 μM, read-out: EC50 or IC50, serine/threonine-protein kinase B-raf
# T1 construct: purchased BPS Bioscience
# Experimental: The assay was performed in a volume of 50 μL in a 96-well white plate. The B-Raf kinase assay (V600E; BPS Bioscience, USA) was designed to measure B-Raf kinase activity by the use of Kinase-Glo MAX (Promega, USA), which detects ATP residual following the kinase reaction. For activity measurement, the kinase (final concentration, 2 ng per reaction), Raf substrate and ATP (final concentration, 500 μM), and compounds were incubated for 45 min at 30 °C. The compounds were added at different concentrations in the reaction buffer, starting from a final concentration of 30 μM. Buffer with the same amount of DMSO (1%) was used as a negative control. After the incubation time, Kinase-Glo MAX detection reagent was added for 15 min at room temperature. The generated luminescent signal was read in end point mode using a PerkinElmer AlphaScreen multimodal plate reader (PerkinElmer, Waltham, MA, USA). Experiments were performed in triplicate. IC50 values were calculated with GraphPad Prism 8.0 software by nonlinear dose–response inhibition regression.
# [2] = biological target: T2, G-protein coupled receptor 55 (Homo sapiens, UniProt Q9Y2T6); experiment: Cell Based Antagonist Arrestin LeadHunter Assay; conditions: Eurofins, read-out: EC50 or IC50, G-protein coupled receptor 55, antagonist mode
# T2 construct: Eurofins (contract assay)
# From the text: (§1) For displacement assays on G-protein coupled receptor 55 (GPR55), Vasopressin V2 receptor (V2R), Adenosine A1 receptor (A1AR), Fibroblast growth factor receptor 1 (FGFR1), Vascular endothelial growth factor receptor 2 (VEGFR2), Platelet-derived growth factor receptor beta (PDGFRB), Vascular endothelial growth factor receptor 1 (VEGFR1), Thromboxane Synthase (TXS) and Phosphodiesterase 10A (PDE10A), we commissioned the Eurofins company which employed its specific experimental methods, accessible at the link: https://www.eurofins.com/.
# A1 Human Adenosine GPCR = biological target: T3, A1 Human Adenosine GPCR (Homo sapiens, UniProt P30542); experiment: Binding Agonist Radioligand LeadHunter Assay; conditions: Eurofins, read-out: EC50 or IC50, A1 Human Adenosine GPCR, agonist radioligand
# T3 construct: Eurofins (contract assay)
# T3 sequence (P30542 1-326): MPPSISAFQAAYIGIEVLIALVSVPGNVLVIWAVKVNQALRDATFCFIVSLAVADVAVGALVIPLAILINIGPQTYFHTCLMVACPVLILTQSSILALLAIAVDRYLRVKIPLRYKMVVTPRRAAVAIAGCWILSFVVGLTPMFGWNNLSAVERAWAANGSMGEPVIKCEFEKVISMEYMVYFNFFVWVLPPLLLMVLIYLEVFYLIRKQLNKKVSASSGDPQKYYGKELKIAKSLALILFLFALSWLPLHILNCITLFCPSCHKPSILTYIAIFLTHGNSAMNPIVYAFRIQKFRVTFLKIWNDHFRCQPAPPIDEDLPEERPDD
# From the text: as §1
# [3] = biological target: T4, V2 Human Vasopressin/Oxytocin GPCR (Homo sapiens, UniProt P30518); experiment: Binding Agonist Radioligand LeadHunter Assay; conditions: Eurofins, read-out: EC50 or IC50, V2 Human Vasopressin/Oxytocin GPCR
# T4 construct: Eurofins (contract assay)
# From the text: as §1
# A375 cells = experiment: Thioflavin T (ThT) protein misfolding assay; assay type: cell-based, human; conditions: 24 h, 31: 10, 5, 2.5 μM, 63: 20, 10, 5 μM
# Experimental: Protein misfolding was analyzed using ThT, (Sigma-Aldrich, St. Louis, MO, USA) staining. A375 cells (5 × 10^3 cells/well) were grown in 96-well plates and allowed to adhere for 24 h. Later the medium was replaced, and cells were treated with compounds (31: 10, 5, and 2.5 μM; 63: 20, 10, and 5 μM), for 24 h. After treatments, the culture medium was replaced, cells washed twice with PBS and then suspended in 100 μL ThT (20 μM). After washing, a staining solution containing 20 μM ThT in PBS was added for 30 min at 37 °C in the dark. The stained cells were washed, and representative images were acquired using ZOE Fluorescent Cell Imaging System (Magnification, 20×). Quantitative analyses were performed reading the fluorescence signals (excitation/emission 450 nm/482 nm) using a PerkinElmer EnSpire multimode plate reader (PerkinElmer, Waltham, MA, USA).
# [4] = biological target: T2, G-protein coupled receptor 55; experiment: Cell Based Agonist Arrestin LeadHunter Assay; conditions: Eurofins, read-out: EC50 or IC50, G-protein coupled receptor 55, agonist mode
# From the text: as §1
# HEPG2 = experiment: MTT cell viability assay; assay type: cell-based; conditions: Homo sapiens, 24 h, compounds 0.01–40 μM, read-out: In Vitro Cytotoxicity, EC50 ± SD, HEPG2
# From the text: Initially, we phenotypically screened the synthesized compounds over a panel of tumor cell lines composed of HEPG2, A375, SHSY5Y, MCF7, and A549 derived from liver tumor, melanoma, neuroblastoma, breast cancer, and lung adenocarcinoma, respectively. We also considered the HaCaT cell line, coming from keratinocytes, as a healthy control line. As reference, cytotoxic chemotherapeutic agent 5-fluorouracil (5-FU) has been used. The results obtained performing the MTT (3-(4,5-dimethylthiazolyl-2)-2,5-diphenyltetrazolium bromide) assay are summarized in Table .
# The human hepatoma HEPG2 cell line was obtained from American Type Culture Collection (ATCC, Rockville, MD, USA). Cells were grown in Eagle’s Minimum Essential Medium (EMEM) supplemented with 10% (v/v) fetal bovine serum (FBS), 2 mM L-glutamine, 1% (v/v) nonessential amino acids, 100 U/mL penicillin, and 0.1 mg/mL streptomycin.
# Cell viability was established by measuring mitochondrial metabolic activity with MTT. In brief, HEPG2 (1 × 10^4 cells/well), A375 (2 × 10^3 cells/well), HaCaT (3 × 10^3 cells/well), A549 (3 × 10^3 cells/well), SHSY5Y (2 × 10^4 cells/well), and MCF 7 (5 × 10^3 cells/well) were plated into 96-well plates for 24 h, then the compounds (0.01–40 μM) were added. After 24h, cells were replaced with a fresh medium containing 0.5 mg/mL MTT. Cells were incubated 1–3 h at 37 °C, then the medium was discarded, and formazan blue crystals in the cells were dissolved in 100 μL per well of a solution containing isopropanol/HCl 0.1 M. The absorbance was measured at 570 nm using a microplate reader (Multiskan Go, Thermo Scientific, Waltham, MA, USA). Cell viability was expressed as a percentage relative to the untreated cells cultured in medium with 0.1% DMSO and set to 100%, whereas 10% DMSO was used as positive control and set to 0% of viability. The EC50 values were calculated using GraphPad Prism 8.0 software by nonlinear regression of dose–response inhibition.
# T2 sequence (Q9Y2T6 whole entry): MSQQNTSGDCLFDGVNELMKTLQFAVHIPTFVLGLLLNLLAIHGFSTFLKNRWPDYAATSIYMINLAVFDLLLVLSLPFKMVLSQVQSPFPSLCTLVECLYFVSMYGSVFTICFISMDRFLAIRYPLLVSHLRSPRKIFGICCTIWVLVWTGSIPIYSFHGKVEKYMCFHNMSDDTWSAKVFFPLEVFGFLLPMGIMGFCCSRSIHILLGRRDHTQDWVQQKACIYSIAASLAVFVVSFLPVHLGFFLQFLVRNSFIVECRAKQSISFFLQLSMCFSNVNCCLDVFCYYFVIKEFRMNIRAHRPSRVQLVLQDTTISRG
# T1 sequence (P15056 whole entry V600E): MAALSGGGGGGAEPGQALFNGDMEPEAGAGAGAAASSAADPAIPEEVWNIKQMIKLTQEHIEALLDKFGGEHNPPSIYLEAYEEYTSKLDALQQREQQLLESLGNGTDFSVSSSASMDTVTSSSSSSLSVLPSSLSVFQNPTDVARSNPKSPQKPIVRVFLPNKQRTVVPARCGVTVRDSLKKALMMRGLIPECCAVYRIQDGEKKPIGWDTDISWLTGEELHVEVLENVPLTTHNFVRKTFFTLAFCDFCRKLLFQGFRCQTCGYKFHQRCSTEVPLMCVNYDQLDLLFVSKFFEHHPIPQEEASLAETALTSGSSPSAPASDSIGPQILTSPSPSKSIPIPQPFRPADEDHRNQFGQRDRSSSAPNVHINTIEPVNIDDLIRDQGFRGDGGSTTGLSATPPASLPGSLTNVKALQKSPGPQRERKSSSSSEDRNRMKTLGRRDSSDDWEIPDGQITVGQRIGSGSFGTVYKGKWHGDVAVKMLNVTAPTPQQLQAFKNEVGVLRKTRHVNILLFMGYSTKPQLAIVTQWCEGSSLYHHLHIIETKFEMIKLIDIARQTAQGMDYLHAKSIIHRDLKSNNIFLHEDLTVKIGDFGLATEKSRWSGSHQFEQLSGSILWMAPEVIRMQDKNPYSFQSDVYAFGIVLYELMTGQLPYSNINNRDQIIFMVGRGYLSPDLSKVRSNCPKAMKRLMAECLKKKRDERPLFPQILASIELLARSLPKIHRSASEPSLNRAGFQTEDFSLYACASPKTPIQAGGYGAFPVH
# T4 sequence (P30518 whole entry): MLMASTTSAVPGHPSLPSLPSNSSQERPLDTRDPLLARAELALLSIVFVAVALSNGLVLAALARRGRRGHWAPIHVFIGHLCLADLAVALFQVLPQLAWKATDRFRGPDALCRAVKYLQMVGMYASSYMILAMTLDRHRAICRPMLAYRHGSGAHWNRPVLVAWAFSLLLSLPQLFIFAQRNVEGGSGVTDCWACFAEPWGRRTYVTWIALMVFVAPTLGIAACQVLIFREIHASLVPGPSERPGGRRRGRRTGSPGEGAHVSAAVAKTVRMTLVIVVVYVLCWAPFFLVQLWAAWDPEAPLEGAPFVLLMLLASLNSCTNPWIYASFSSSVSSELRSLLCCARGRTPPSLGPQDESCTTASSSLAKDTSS
IC50 [1] [µM],IC50 [2] [µM],IC50 (A1 Human Adenosine GPCR) [µM],IC50 [3] [µM],EC50 [4] [µM],Structure (SMILES),misfolded protein levels (ThT fluorescence) (A375 cells),EC50 (HEPG2) [µM]
≥ 30,≥ 30,≥ 30,≥ 30,≥ 30,"CC(C)C[C@H]1C(=O)N(Cc2ccc(C(F)(F)F)cc2)c2ccccc2C(=O)N1Cc1ccc(C(F)(F)F)cc1 [Compound 31, (S)-3-Isobutyl-1,4-bis(4-(trifluoromethyl)benzyl)-3,4-dihydro-1H-benzo[e][1,4]diazepine-2,5-dione]",maximum accumulation of misfolded proteins even at 10 μM,12 ± 3.51
≥ 30,≥ 30,≥ 30,≥ 30,≥ 30,"CC(C)C[C@@H](C(=O)OCc1ccccc1)N1Cc2ccccc2NC1=O [Compound 63, Benzyl (S)-4-Methyl-2-(2-oxo-1,4-dihydroquinazolin-3(2H)-yl)pentanoate]",greatest increase in fluorescence at 20 μM,2.17 ± 0.96
